Source: article PMC5142810, “Structure of protein O-mannose kinase reveals a unique active site architecture” (eLife, 2016)

Columns and labels:
[1] = target: T1, DrPOMK (Danio rerio, UniProt Q5U3W1); assay: 1H NMR titration, Man H1 peak intensity; type: binding; conditions: read-out: dissociation constant
T1 construct: gene pomk; lumenal kinase domain, residues 49-347, secreted from Hi5 insect cells (baculovirus); N-terminal 6xHis-MBP removed by TEV for crystallization

[2] = target: T2, CoPOMK (Capsaspora owczarzaki, UniProt A0A0D2WXW5); assay: radiometric kinase assay, […] incorporation, C18 cartridge; type: biochemical; conditions: 20 μM GGM-MU, 100 μM ATP, 10 mM MnCl2, 50 mM HEPES pH 7.5, 20 °C, 30 min
T2 construct: gene CAOG_008172; residues 112-610, 6xHis-MBP fusion (psMBP2), secreted from Hi5 insect cells (baculovirus)
T2 sequence (A0A0D2WXW5 112-610): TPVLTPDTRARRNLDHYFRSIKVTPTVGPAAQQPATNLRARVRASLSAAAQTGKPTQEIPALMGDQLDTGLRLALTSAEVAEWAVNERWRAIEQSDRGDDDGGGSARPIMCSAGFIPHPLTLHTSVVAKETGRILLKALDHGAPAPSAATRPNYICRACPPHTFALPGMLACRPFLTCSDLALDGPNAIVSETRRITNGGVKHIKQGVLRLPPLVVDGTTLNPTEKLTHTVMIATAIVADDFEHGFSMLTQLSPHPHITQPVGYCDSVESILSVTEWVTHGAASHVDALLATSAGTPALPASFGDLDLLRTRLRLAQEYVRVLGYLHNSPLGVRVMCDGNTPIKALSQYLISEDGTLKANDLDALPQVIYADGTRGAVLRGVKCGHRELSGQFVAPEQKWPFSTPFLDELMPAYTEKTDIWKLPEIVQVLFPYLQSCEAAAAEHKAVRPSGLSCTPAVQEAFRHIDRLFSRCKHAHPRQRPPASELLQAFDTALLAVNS

[3] = target: T3, HsPOMK (Homo sapiens, UniProt Q9H5K3); assay: as above; type: biochemical; conditions: 20 μM GGM-MU, 100 μM ATP, 10 mM MnCl2, 50 mM HEPES pH 7.5, 20 °C, 30 min
T3 construct: gene POMK; lumenal kinase domain, residues 49-350, 6xHis-MBP fusion kept, secreted from Hi5 insect cells (baculovirus)
T3 sequence (Q9H5K3 49-350): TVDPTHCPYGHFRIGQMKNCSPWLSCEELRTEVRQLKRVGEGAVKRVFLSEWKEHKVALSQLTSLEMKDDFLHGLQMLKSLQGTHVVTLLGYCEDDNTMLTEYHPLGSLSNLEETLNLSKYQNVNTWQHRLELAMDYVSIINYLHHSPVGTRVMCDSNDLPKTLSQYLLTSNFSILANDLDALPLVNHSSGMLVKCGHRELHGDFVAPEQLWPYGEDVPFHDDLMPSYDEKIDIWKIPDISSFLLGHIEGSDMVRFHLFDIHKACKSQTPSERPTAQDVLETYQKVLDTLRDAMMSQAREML

T1 sequence (Q5U3W1 49-347): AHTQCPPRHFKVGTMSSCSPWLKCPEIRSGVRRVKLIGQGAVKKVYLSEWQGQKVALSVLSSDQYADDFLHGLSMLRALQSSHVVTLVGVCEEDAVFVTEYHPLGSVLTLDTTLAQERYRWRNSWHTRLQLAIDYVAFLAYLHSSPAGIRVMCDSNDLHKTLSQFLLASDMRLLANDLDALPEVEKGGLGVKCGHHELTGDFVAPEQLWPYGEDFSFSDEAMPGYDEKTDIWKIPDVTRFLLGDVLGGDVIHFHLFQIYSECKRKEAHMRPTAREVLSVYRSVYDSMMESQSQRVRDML

CC(=O)N[C@H]1[C@H](O[C@H]2[C@H](O)[C@@H](CO)O[C@@H](O[C@H]3[C@H](O)[C@H](O)[C@@H](Oc4ccc5c(C)cc(=O)oc5c4)O[C@@H]3CO)[C@@H]2NC(C)=O)O[C@H](CO)[C@H](O)[C@@H]1O [GGM-MU]
Kd [1]: 30.2 µM
radiometric kinase assay, 32P incorporation, C18 cartridge [2]: POMK homologues phosphorylates GGM-MU.
radiometric kinase assay, 32P incorporation, C18 cartridge [3]: POMK homologues phosphorylates GGM-MU.
